From ChEMBL document CHEMBL2074105, “The potential for an interaction between MRP2 (ABCC2) and various therapeutic agents: probenecid as a candidate inhibitor of the biliary excretion of irinotecan metabolites” (Drug Metabol Pharmacokin, 2002)

Columns and labels:
[1] = molecular target: T1, ATP-binding cassette sub-family C member 2 (Rattus norvegicus, UniProt Q63120); assay: TP_TRANSPORTER: inhibition of DNP-SG uptake in bile canalicular membrane vesicles from SD rat; assay type: functional, cell membranes, Sprague-Dawley, Bile canalicular membrane vesicle
[2] = molecular target: T1, ATP-binding cassette sub-family C member 2; assay: TP_TRANSPORTER: inhibition of SN-38 uptake in bile canalicular membrane vesicles from SD rat; assay type: functional, cell membranes, Sprague-Dawley, Bile canalicular membrane vesicle
[3] = molecular target: T1, ATP-binding cassette sub-family C member 2; assay: TP_TRANSPORTER: inhibition of DNP-SG uptake in blie canalicular membrane vesicle from SD rat; assay type: functional, cell membranes, Sprague-Dawley, Bile canalicular membrane vesicle
[4] = molecular target: ATP-binding cassette sub-family C member 2 (Rattus norvegicus) (UniProt Q63120); assay: TP_TRANSPORTER: inhibition of SN-38 uptake in bile canalicular membrane vesicles
Sequence of ATP-binding cassette sub-family C member 2 (Rattus norvegicus) (Q63120 whole entry, looked up): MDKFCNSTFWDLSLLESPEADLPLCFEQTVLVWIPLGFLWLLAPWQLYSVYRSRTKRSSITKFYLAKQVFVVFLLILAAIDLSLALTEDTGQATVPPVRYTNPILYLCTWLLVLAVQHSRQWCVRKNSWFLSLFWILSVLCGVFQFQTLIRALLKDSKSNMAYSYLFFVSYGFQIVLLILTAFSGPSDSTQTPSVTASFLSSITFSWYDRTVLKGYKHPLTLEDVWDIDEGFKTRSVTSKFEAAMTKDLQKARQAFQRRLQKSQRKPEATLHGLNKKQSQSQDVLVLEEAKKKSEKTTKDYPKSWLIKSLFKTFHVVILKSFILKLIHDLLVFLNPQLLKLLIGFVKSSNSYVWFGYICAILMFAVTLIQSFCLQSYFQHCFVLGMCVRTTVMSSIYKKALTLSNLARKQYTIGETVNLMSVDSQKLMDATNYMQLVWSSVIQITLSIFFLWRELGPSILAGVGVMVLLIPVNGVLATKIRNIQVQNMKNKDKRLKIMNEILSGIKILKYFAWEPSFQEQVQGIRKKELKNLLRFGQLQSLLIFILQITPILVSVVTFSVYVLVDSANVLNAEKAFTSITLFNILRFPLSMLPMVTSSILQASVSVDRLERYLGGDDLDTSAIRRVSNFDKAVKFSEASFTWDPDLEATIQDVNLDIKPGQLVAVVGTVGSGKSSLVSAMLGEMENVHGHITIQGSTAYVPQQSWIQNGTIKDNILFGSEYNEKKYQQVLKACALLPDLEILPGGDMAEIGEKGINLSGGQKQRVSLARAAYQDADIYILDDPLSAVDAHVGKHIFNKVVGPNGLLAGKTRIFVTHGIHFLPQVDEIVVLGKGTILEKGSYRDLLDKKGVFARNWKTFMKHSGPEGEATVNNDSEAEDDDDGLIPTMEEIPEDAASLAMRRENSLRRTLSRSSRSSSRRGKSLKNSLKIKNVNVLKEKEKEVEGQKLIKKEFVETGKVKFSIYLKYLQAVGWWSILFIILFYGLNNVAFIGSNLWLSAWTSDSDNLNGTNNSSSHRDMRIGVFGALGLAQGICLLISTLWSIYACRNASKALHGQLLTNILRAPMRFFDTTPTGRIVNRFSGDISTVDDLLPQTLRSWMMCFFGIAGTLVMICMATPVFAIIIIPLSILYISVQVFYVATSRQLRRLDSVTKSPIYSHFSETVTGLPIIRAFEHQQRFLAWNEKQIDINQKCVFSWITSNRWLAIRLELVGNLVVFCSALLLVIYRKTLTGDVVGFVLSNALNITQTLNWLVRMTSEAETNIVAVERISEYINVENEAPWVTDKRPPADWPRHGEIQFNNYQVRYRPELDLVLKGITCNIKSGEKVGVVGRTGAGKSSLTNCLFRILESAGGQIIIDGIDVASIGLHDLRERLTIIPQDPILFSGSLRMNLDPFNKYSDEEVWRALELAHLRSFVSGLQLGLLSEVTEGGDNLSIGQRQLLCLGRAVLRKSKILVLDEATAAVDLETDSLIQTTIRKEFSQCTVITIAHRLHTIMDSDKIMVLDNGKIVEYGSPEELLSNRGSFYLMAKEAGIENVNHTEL

T1 sequence (Q63120 whole entry): as the sequence (Q63120 whole entry, looked up) above

Row | Compound | Ki [1] [µM] | other results
1 | Nc1nc2c(c(=O)[nH]1)N(C=O)C(CNc1ccc(C(=O)N[C@@H](CCC(=O)O)C(=O)O)cc1)CN2 (stereo partly drawn) [LEUCOVORIN] | 132 | 
2 | CCCN(CCC)S(=O)(=O)c1ccc(C(=O)O)cc1 [PROBENECID] |  | Ki [3]: 44.6 µM; Ki [4]: 42.2 µM
3 | O=C1OC(c2ccc(O)c(S(=O)(=O)O)c2)(c2ccc(O)c(S(=O)(=O)O)c2)c2c(Br)c(Br)c(Br)c(Br)c21 [SULFOBROMOPHTHALEIN SODIUM] | 2.18 | Ki [2]: 2.87 µM
4 | CREMOPHOR EL | 281 | 

Second part, led by results:

Row | Ki [1] [µM] | Compound | other results
5 | 0.0461 | N[C@@H](CCC(=O)N[C@@H](CSc1c(Br)c(Br)c2c(c1Br)C(=O)OC2(c1ccc(O)c(S(=O)(=O)O)c1)c1ccc(O)c(S(=O)(=O)O)c1)C(=O)NCC(=O)O)C(=O)O | 
6 | 7.95 | O=C(O)[C@H]1O[C@@H](Oc2cc3oc(-c4ccccc4)cc(=O)c3c(O)c2O)[C@H](O)[C@@H](O)[C@@H]1O [BAICALIN] | 
7 | 10 | CO/N=C(\C(=O)N[C@@H]1C(=O)N2C(C(=O)O)=C(CSc3nc(C)c(CC(=O)O)s3)CS[C@H]12)c1csc(N)n1 [CEFODIZIME] | 
8 | 0.84 | CC1(C)[C@@H](O[C@H]2O[C@H](C(=O)O)[C@@H](O)[C@H](O)[C@H]2O[C@@H]2O[C@H](C(=O)O)[C@@H](O)[C@H](O)[C@H]2O)CC[C@]2(C)[C@H]3C(=O)C=C4[C@@H]5C[C@@](C)(C(=O)O)CC[C@]5(C)CC[C@@]4(C)[C@]3(C)CC[C@@H]12 [GLYCYRRHIZIN] | Ki [2]: 1.91 µM
9 | 1 | CC1(C)C(/C=C/C=C/C=C/C=C2\N(CCCCS(=O)(=O)O)c3ccc4ccccc4c3C2(C)C)=[N+](CCCCS(=O)(=O)[O-])c2ccc3ccccc3c21 [INDOCYANINE GREEN] | 
10 | 41.1 | O=C(Nc1cccc2c(=O)cc(-c3nnn[nH]3)oc12)c1ccc(OCCCCc2ccccc2)cc1 [PRANLUKAST] | 
